Measurements from publication PMC11942905, “Identification of a Selective Inhibitor of Human NFS1, a Cysteine Desulfurase Involved in Fe-S Cluster Assembly, via Structure-Based Virtual Screening” (International Journal of Molecular Sciences, 2025).

Columns and labels:
NFS1 E387A = target: T1, NFS1 E387A (Homo sapiens, UniProt Q9Y697, E387A); test: H2S-producing assay, NFS1 E387A mutant; assay type: biochemical
T1 construct: His tag (N); made in house; host or cells: E. coli BL21(DE3)
Procedure: (§1) To further validate the accuracy of the simulated results, the residues Cys158, Glu387, Lys157, and His156 were mutated to alanine using site-directed mutagenesis.
(§2) For the expression and purification of NFS1Δ1-55/ISD11 in E. coli, the plasmid pNFS1-ISD11 was transformed into BL21(DE3) cells. The cells were grown at 37 °C in 1 L cultures of LB medium containing chloramphenicol (50 μg/ml) until the optical density at 600 nm (OD600) reached 0.6–0.8. Protein expression was induced by adding 0.1 mM isopropyl β-D-1-thiogalactopyranoside (IPTG), followed by an additional 12 h of incubation at 25 °C. The cells were harvested by centrifugation at 8000 rpm for 10 min at 4 °C, then resuspended in lysis buffer containing 50 mM phosphate-buffered saline (PBS, pH 7.4), 500 mM NaCl, 100 mg/L lysozyme, 30 mM imidazole, and 1 mM phenylmethanesulfonyl fluoride (PMSF). The resuspended cells were incubated on ice for 1 h, followed by sonication using an Ultrasonic Cell Disruption System (Scientz, Ningbo, China). The supernatant was obtained by centrifugation at 12,000 rpm for 30 min at 4 °C and was loaded onto a HisTrap FF column (GE Healthcare, Chicago, MA, USA) pre-equilibrated with lysis buffer. […] The protein concentration was measured using a BCA protein assay reagent kit (TransGen Biotech, Beijing, China).

BEAS-2B cells = test: CCK-8 cell viability assay, BEAS-2B; assay type: cell-based; settings: Homo sapiens, CCK-8, 72 h
Procedure: Human bronchial epithelial cells (BEAS-2B) and human lung adenocarcinoma A549 cells were purchased from the Institute of Biochemistry and Cell Biology, Chinese Academy of Sciences (Shanghai, China). BEAS-2B and A549 cells were cultured in DMEM supplemented with 10% (v/v) fetal bovine serum and 1% (v/v) penicillin–streptomycin solution at 37 °C in a humidified atmosphere containing 5% CO2. The half-maximal inhibitory concentration (IC50) values of the selected compounds against BEAS-2B and A549 cells were determined using the CCK-8 assay. Briefly, the cells were seeded into 96-well culture plates at a density of 5 × 10^3 cells per well. After 12 h of culture, fresh medium containing varying concentrations of the selected compounds dissolved in DMSO was added for an additional 72-hour incubation. Subsequently, 10 μL of CCK-8 solution was added to each well, followed by a further 1.5-h incubation at 37 °C. The optical density at 450 nm (OD450) for each well was measured using a microplate reader. Medium containing DMSO alone was used as the control group. Cell viability was calculated as the percentage of the OD450 of the experimental group compared to that of the control group, which was set at 100%.

aconitase (ACO) = test: Aconitase activity in A549 cells; assay type: cell-based, human; settings: 50 µM
Procedure: The activity of succinate dehydrogenase (SDH) in cells was determined using an SDH activity assay kit (Solarbio, Beijing, China) according to the manufacturer’s instructions. The optical density at 600 nm (OD600) was measured using a multifunctional microplate reader in 96-well plates. One unit of SDH activity was defined as the amount of enzyme catalyzing the consumption of 1 nmol of 2,6-dichlorophenol indophenol per minute at 37 °C [43]. The activity of aconitase (ACO) was measured as previously described, with some modifications. The cells were washed three times with pre-cooled PBS and lysed with lysis buffer containing 50 mM of Tris-HCl (pH 8.0), 0.2% Triton X-100, 0.6 mM of MnCl2, 5 mM of citrate, and 1 mM of PMSF. The aconitase activity was measured by monitoring the formation of cis-aconitate from isocitrate at 240 nm in 50 mM of Tris-HCl (pH 8.0) containing 20 mM of DL-trisodium isocitrate at 37 °C. An extinction coefficient of 3600 M^−1 cm^−1 at 240 nm was used to calculate the cis-aconitate concentration. One unit of ACO activity was defined as the amount of enzyme catalyzing the generation of 1 nmol of cis-aconitate per minute at 37 °C.

NFS1 C158A = target: T2, NFS1 C158A (Homo sapiens, UniProt Q9Y697, C158A); test: H2S-producing assay, NFS1 C158A mutant; assay type: biochemical
T2 construct: His tag (N); made in house; host or cells: E. coli BL21(DE3)
Procedure: as §1, §2

A549 cells [1] = test: Lipid peroxide (LPO) content; assay type: cell-based, human; settings: 48 h, Erastin 2.5 µM, Compound 53 50 µM, 2-AAPA 20 µM, alone or combined
Procedure: A549 cells were seeded in 10 cm dishes at a density of 2 × 10^6 cells per dish and cultured until they reached 40–60% confluence. […] Lipid peroxidation (LPO) levels were measured using a Lipid Peroxide (LPO) Content Assay Kit (Solarbio, China) following the manufacturer’s instructions.

A549 cells [2] = test: Endogenous ROS levels, DCFH-DA fluorescence; assay type: cell-based, human; settings: 48 h, Compound 53 50 µM, Erastin 2.5 µM, 2-AAPA 20 µM
Procedure: Endogenous ROS levels in A549 cells were detected using the fluorescent dye DCFH-DA [48, 49]. A549 cells were cultured in DMEM supplemented with 10% fetal bovine serum at 37 °C in a humidified atmosphere containing 5% CO2. […] Subsequently, the cells were washed three times with prewarmed PBS, and fresh medium containing 10 μM of DCFH-DA was added. After 30 min of incubation, the cells were washed again with prewarmed PBS, fresh medium was added, and the cells were imaged using an inverted fluorescence microscope (Leica, Wetzlar, Germany). Images of live cells were acquired in six different fields. ImageJ software was used to analyze the images.

A549 cells [3] = test: Cellular iron content by atomic absorption spectroscopy; assay type: cell-based, human; settings: 50 µM, 48 h
Procedure: A549 cells were seeded in a 6-well plate and grown to 40–60% confluence. […] The cells were then washed three times with PBS and digested with 0.25% trypsin (Servicebio, Wuhan, China) for 2 min. The cells were divided into two equal groups: group A and group B. In group A, the cells were lysed with RIPA lysis buffer supplemented with 1 mM of PMSF to extract the total proteins. Protein concentrations were measured using a BCA protein assay reagent kit. In group B, the cells were treated with concentrated nitric acid at 70 °C for 2 h. Once the cells were completely nitrated, the temperature was increased to 150 °C until the nitric acid had completely evaporated. Subsequently, the samples were diluted to 10 mL with a solution containing 1% HNO3 and 0.1% KCl, and the iron levels were measured using atomic absorption spectroscopy (AAS; Analytik Jena AG, Jena, Germany). The iron content was calculated based on the standard curve, and the values were normalized to the protein concentration.

T1 sequence (Q9Y697 56-457 E387A): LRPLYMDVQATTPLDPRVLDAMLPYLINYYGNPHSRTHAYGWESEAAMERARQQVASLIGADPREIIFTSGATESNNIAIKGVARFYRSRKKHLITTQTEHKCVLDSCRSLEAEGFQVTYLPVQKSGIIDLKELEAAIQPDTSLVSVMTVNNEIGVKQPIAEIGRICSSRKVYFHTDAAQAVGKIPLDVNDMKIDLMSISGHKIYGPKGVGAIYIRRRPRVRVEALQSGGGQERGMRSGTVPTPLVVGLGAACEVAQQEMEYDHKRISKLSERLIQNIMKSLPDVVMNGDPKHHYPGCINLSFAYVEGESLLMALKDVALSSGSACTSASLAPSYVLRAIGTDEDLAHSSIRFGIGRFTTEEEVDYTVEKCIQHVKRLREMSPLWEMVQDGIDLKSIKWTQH
T2 sequence (Q9Y697 56-457 C158A): as the sequence (Q9Y697 56-457 E387A) above, with C103A, A332E counted along it

With COc1cc(/C=N/NC(=O)COc2ccc(Cl)cc2Cl)ccc1O [Compound 53] the IC50 (NFS1 E387A) was 105 ± 3.17 µM, the IC50 (BEAS-2B cells) was 31 ± 3.98 µM and the “ACO activity compared to the control group” value (aconitase (ACO)) was 51.3%. For the same compound, the IC50 (NFS1 C158A) was 114 ± 3.45 µM, the “intracellular lipid peroxide (LPO) levels” value (A549 cells [1]) was “no significant changes” and the “intracellular ROS levels” value (A549 cells [2]) was “did not significantly affect intracellular ROS levels”. The cellular iron content (A549 cells [3]) was “significantly increased the cellular iron content”.
